Test results: US4698350A, “1-ethyl-6-fluoro-1,4-dihydro- 7-(2,6-dimethyl-4-pyridinyl)-4-oxo-3-quinolinecarboxylic acid and antibacterial use thereof” (Sterling Drug Inc., priority 1984, dated 1987)
≈ marks a conversion by molar mass, not a printed value. Like-named read-outs stand apart in the source and are kept apart here.

Columns and labels:
[1] = tested on: E. coli AH719; test: In vitro antibacterial MIC/MBC test; assay type: cell-based; conditions: Escherichia coli
Procedure, shortened: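 In this microdilution assay, strains are exposed to two-fold compound dilutions in MHB (streptococci in BHI+1% NHS) at roughly 1×10^4 cells per well for 18-20 hours at 37° C. Visible growth defines the MIC. Subculture onto MHA or BHI agar+10% NHS defines the MBC.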

[2] = tested on: A. actinomycetemcomitans; test: Agar dilution MIC, anaerobic microorganisms; assay type: cell-based; conditions: Aggregatibacter actinomycetemcomitans, 48 h; A. actinomycetemcomitans; read-out: MIC
Protocol: (§1) 1. Maintenance. Prior to use, all strains were maintained in the lyophilized state. During the study, cultures were examined on blood agar basal medium supplemented with 5.0% (v/v) defibrinated rabbit blood. Culture transfer was accomplished weekly with all cultures being incubated in an anaerobic atmosphere (GasPak jar; BBL).
(§2) 2. Agar Medium. The basal test medium consisted of trypticase soy agar (40 g), yeast extract (1 g), glucose (2 g) and 960 ml of distilled water pH 7.2. [Mashimo et al., J. Clin. Micro. 17, 187-191 (1983)]. Subsequent to sterilization and cooling to 50° C., the medium was supplemented with 4% (v/v) defibrinated rabbit blood and 0.5 μg/ml menadione (Vitamin K3) The agent under evaluation was also added at this time to the concentration desired. Subsequent to pouring of the plates, they were permitted to dry at 4° C. for 24 hr.
(§3) 3. Determination of Agent MIC. The minimal inhibitory concentration (MIC) of the various test agents was determined using an agar dilution technique. Agents and appropriate reference compounds were added to achieve a series of concentrations ranging between 32 μg/ml and 0.007 μg/ml. The inocula were prepared from 96-hr. cultures grown on the maintenance medium. Subsequent to a purity evaluation, colonies were removed and suspended in trypticase soy broth supplemented with 5 μg/ml menadione and 2% lysed rabbit blood filtrate to achieve an OD650 of 0.1 (this corresponded to approximately 10^8 cells/ml). Cultures were inoculated aerobically on the modified trypticase soy blood agar plates by use of a Steer's replicator (which delivers about 10^5 cells per spot). The plates were allowed to dry for a time not exceeding 30 min. and then incubated at 37° C. under an atmosphere of […], 10% H2 and 5% CO2 maintained in an anaerobic chamber (Coy Manufacturing Co.) for 48 hr. The MIC was defined as the lowest concentration completely inhibiting growth.
(§4) Tetracycline stock solutions (1 mg/ml) were made subsequent to dissolution in water. Stock solutions (1 mg/ml) of the remaining test compounds were made subsequent to dissolution in 1/10 N NaOH.

[3] = tested on: A. viscosus; test: Agar dilution MIC, anaerobic microorganisms; assay type: cell-based; conditions: Actinomyces viscosus, 48 h; A. viscosus; read-out: MIC
Protocol: as §1, §2, §3, §4

[4] = tested on: B. intermedius; test: Agar dilution MIC, anaerobic microorganisms; assay type: cell-based; conditions: Prevotella intermedia, 48 h; B. intermedius; read-out: MIC
Protocol: as §1, §2, §3, §4

[5] = tested on: B. melaninogenicus; test: Agar dilution MIC, anaerobic microorganisms; assay type: cell-based; conditions: 48 h; B. melaninogenicus; read-out: MIC
Protocol: as §1, §2, §3, §4

[6] = tested on: B. oralis; test: Agar dilution MIC, anaerobic microorganisms; assay type: cell-based; conditions: Hoylesella oralis, 48 h; B. oralis; read-out: MIC
Protocol: as §1, §2, §3, §4

[7] = tested on: Campylobacter sputorum; test: Agar dilution MIC, anaerobic microorganisms; assay type: cell-based; conditions: 48 h
Protocol: as §1, §2, §3, §4

[8] = tested on: F. nucleatum; test: Agar dilution MIC, anaerobic microorganisms; assay type: cell-based; conditions: Fusobacterium nucleatum, 48 h; F. nucleatum; read-out: MIC
Protocol: as §1, §2, §3, §4

[9] = tested on: F. polymorphum; test: Agar dilution MIC, anaerobic microorganisms; assay type: cell-based; conditions: 48 h; F. polymorphum; read-out: MIC
Protocol: as §1, §2, §3, §4

[10] = tested on: Wolinella recta; test: Agar dilution MIC, anaerobic microorganisms; assay type: cell-based; conditions: Campylobacter rectus, 48 h
Protocol: as §1, §2, §3, §4

[11] = tested on: Staphylococcus aureus Smith; test: Mouse protection test, S. aureus Smith infection, multiple dose; assay type: in vivo, ICR mice; Staphylococcus aureus; conditions: for ED50: Staphylococcus aureus, 168 h, read-out: Protective Dose 50% (95% Confidence Limits)
Protocol: ICR mice, female, 18-20 grams each.
Solutions of Win 52,522 and Win 35,439 were prepared by dissolving the appropriate weight of drug in 0.3 to 0.4 ml of 1 N NaOH and then bringing the solutions to the desired volume with distilled water. Methicillin and vancomycin were dissolved directly in distilled water.
Two and one-half ml of pool were added to 247.5 ml of 5% gastric mucin to provide the test inoculum containing 2.1×10^4 cells/ml.
Mice were inoculated intraperitoneally with 0.5 ml of the bacterial test inoculum.
2. Multiple dose test--Mice were medicated subcutaneously (0.2 ml) or orally (0.5 ml) at the following times: six hours and one hour preinfection (infection at 2 pm) and twice a day (8 a.m. and 3:30 p.m.) for the next two successive days.
Deaths were recorded daily for seven days for all tests. Fifty percent protective dose values (PD50's) were calculated using probit analysis [SAS Users Guide: Statistics, 1982 Edition, SAS Institute, Inc., Cary, N.C.].

| Structure (SMILES) | MBC [1] [µg/mL] | MIC [1] [µg/mL] | MIC [2] [µg/mL] | MIC [3] [µg/mL] | MIC [4] [µg/mL] | MIC [5] [µg/mL] | MIC [6] [µg/mL] | MIC [7] [µg/mL] | MIC [8] [µg/mL] | MIC [9] [µg/mL] | MIC [10] [µg/mL] | Survivors/Total ([11]; 3.13 mg/kg po) | Survivors/Total ([11]; 3.13 mg/kg sc) | Survivors/Total ([11]; 6.25 mg/kg po) | Survivors/Total ([11]; 6.25 mg/kg sc) | Survivors/Total ([11]; 12.5 mg/kg po) | Survivors/Total ([11]; 12.5 mg/kg sc) | ED50 ([11]; po) [mg/kg] | ED50 ([11]; sc) [mg/kg] | other results |
| --- | --- | --- | --- | --- | --- | --- | --- | --- | --- | --- | --- | --- | --- | --- | --- | --- | --- | --- | --- | --- |
| CCn1cc(C(=O)O)c(=O)c2cc(F)c(-c3cc(C)nc(C)c3)cc21 [Win 52,522, 1-ethyl-6-fluoro-1,4-dihydro-7-(2,6-dimethyl-4-pyridinyl)-4-oxo-3-quinolinecarboxylic acid] | 0.25 (≈ 0.735 µM) | 0.25 (≈ 0.735 µM) | 0.12 (≈ 0.353 µM) | 1 (≈ 2.94 µM) | 0.06 (≈ 0.176 µM) | 1 (≈ 2.94 µM) | 4 (≈ 11.8 µM) | 8 (≈ 23.5 µM) | 0.5 (≈ 1.47 µM) | 0.5 (≈ 1.47 µM) | 0.12 (≈ 0.353 µM) | 9/10 | 9/10 | 10/10 | 10/10 | 10/10 | 10/10 | 2.1 | 1.8 | Survivors/Total ([11]; 0.19 mg/kg po): 0/10; Survivors/Total ([11]; 0.19 mg/kg sc): 0/10; Survivors/Total ([11]; 0.39 mg/kg po): 0/10; Survivors/Total ([11]; 0.39 mg/kg sc): 0/10; Survivors/Total ([11]; 0.78 mg/kg po): 0/10; Survivors/Total ([11]; 0.78 mg/kg sc): 0/10; Survivors/Total ([11]; 1.56 mg/kg po): 2/10; Survivors/Total ([11]; 1.56 mg/kg sc): 4/10; times more efficient than Win 35,439 ([11]; po): 3.4 times; times more efficient than Win 35,439 ([11]; sc): 3.9 times |
| CCn1cc(C(=O)O)c(=O)c2ccc(-c3cc(C)nc(C)c3)cc21 [Win 35,439, 1-ethyl-1,4-dihydro-7-(2,6-dimethyl-4-pyridinyl)-4-oxo-3-quinolinecarboxylic acid] | 0.5 (≈ 1.55 µM) | 0.5 (≈ 1.55 µM) | 0.25 (≈ 0.776 µM) | 8 (≈ 24.8 µM) | 0.25 (≈ 0.776 µM) | 8 (≈ 24.8 µM) | > 10 | > 10 | 4 (≈ 12.4 µM) | 4 (≈ 12.4 µM) | 0.5 (≈ 1.55 µM) | 0/10 | 1/10 | 4/10 | 3/10 | 9/10 | 10/10 | 7.2 | 7.1 | Survivors/Total ([11]; 25 mg/kg po): 10/10; Survivors/Total ([11]; 25 mg/kg sc): 10/10 |
